These results are taken from patent US20090031455A1 (priority 2004, published 2009).

The test system of one test is recombinant FaPINH. Briefly: recombinant enzyme activity assay with yeast microsomes, GC-MS. The settings on record: for hydroxylation of alternative substrates by PINH: position analogous to α-pinene C10 (C7), FIGS. 3-4.
In test [1] the test system is Phytophthora infestans. Format: cell-based. The settings on record: P. infestans; for inhibition of spore germination: FIG. 7.
For test [2], the system named is Botrytis elliptica. Format: cell-based.
Test [3] deals with Botrytis elliptica. The format is cell-based. This is another data set of the same source.
Test [4] concerns Phytophthora infestans. The format is cell-based. The settings on record: P. infestans; for inhibition of mycelial growth: FIG. 8.
Another test has as its system Pythium aphanidermatum. Format: cell-based.
The subject of test [5] is PINH expressed in Saccharomyces cerevisiae. Briefly: in vivo bioconversion assay with intact transgenic yeast cells expressing PINH. The note with it: 500 μM (−)-α-pinene, 2 h at 30° C.
Protocol: Transformants were selected on SGI medium, while expression was carried out in YPL medium (induction with 2% galactose) (Pompon et al., 1996). Intact cells were harvested and used for an in vivo assay, by incubation in 50 mM Tris-HCl buffer (pH 7.4) containing 0.1 mM DTT and 1 mM EDTA in the presence of 500 μM (−)-α-pinene. The reaction was allowed to proceed for 2 h at 30° C. with gentle shaking. Controls containing no substrate, and cells containing vector without insert, were also used for in vivo assays. The assays were extracted and analysed using GC-MS as described under Example 3.
A further test has as its system plant pathogens. The format is cell-based. The settings on record: for antimicrobial effect compared with geraniol: data not shown; for antimicrobial effect compared with perilla alcohol: FIGS. 7-8.

Protocol for recombinant FaPINH: Microsome preparations were evaluated by CO-difference spectrum and were assayed for (−)-α-pinene hydroxylation. The reaction mixture for the recombinant enzyme activity assay, in a final volume of 1 ml, contained 50 mM Tris-HCl pH 7.4, 1 mM EDTA, 0.1 mM DTT, 0.8 units glucose-6-phosphate dehydrogenase, 2 mM glucose 6-phosphate, 5 μM FAD, 5 μM FMN, 1 mM NADPH, and 200 μL of microsomal preparation. 200 nmol (−)-α-pinene (in less than 10 μl, which has no detectable influence on the reaction) were added to the mixture to start the reaction, which was allowed to proceed for 2 hours at 30° C. with gentle shaking. Microsomes isolated from cells harboring the empty vector were employed as controls. The reaction was stopped by chilling the mixture on ice and extracting twice with 1.0-mL portions of pentane:diethyl ether (4:1). The combined extract was passed through a short column of silica gel and anhydrous MgSO4, after which the column was washed with 1.5 mL diethyl ether to remove residual compounds. After concentration under N2, the samples were analyzed by GC-MS. Samples (2 μL) were analyzed by an automated injector on a Hewlett-Packard 5890 series II gas chromatograph equipped with a 30 m×0.25 mm inner diameter fused silica column coated with a 0.25 μm film of HP 5MS (Hewlett-Packard), and a Hewlett-Packard 5972A Mass Selective Detector. GC oven temperature was programmed at an initial temperature of 45° C. for 1 min, with a ramp of 10° C. min-1 to 280° C., and a final time of 10 min. Full spectra were recorded for major reaction products, which were identified by comparing retention times with authentic standards and by comparing spectra with those of the NSB75K library, using the G1033A NIST probability based matching algorithm.

On to `Cc1ccc(C(C)C)cc1` [p-cymene], for which the “hydroxylation of alternative substrates by PINH” value (shortened to “hydroxylation”) in the test on recombinant FaPINH is given as “hydroxylated at C7”.
Take `CC1=CCC(=C(C)C)CC1` [α-terpinolene]: in the test on recombinant FaPINH, the “hydroxylation” value was “hydroxylated at the same position”.
`CC1(C)C2CC=C(CO)C1C2` (stereo not shown) [myrtenol]: the “inhibition of spore germination” value in the test with Phytophthora infestans [1] and in the test with Botrytis elliptica [2] was “effective inhibitors” each time. Moreover, the “effectiveness against mycelial growth compared with linalool” value (“effectiveness … compared with linalool” for short) is on record as “slightly more effective than linalool” in the test with Botrytis elliptica [3], “more effective than linalool” in the test on Phytophthora infestans [4] and “less effective than linalool” with Pythium aphanidermatum. Besides, the “inhibition of mycelial growth” value with Botrytis elliptica [3], with Phytophthora infestans [4] and in the test on Pythium aphanidermatum was “effectively inhibited” in each case.
As to `CC1=CCC2CC1C2(C)C` (stereo not drawn) [α-pinene], in the test with recombinant FaPINH (microsomes from FaPINH expressing yeast, 2 hours at 30° C.), the “substrate hydroxylated at C-10 to form myrtenol” value is listed as “over 50%”. The “conversion into myrtenol by intact yeast cells” value in test [5] is listed as “efficiently converted”.
On to `CC1=CC=C(C(C)C)CC1` [α-terpinene], for which the “hydroxylation” value in the test on recombinant FaPINH was “hydroxylated at the same position”.
Regarding `CC1=CC[C@H]2C[C@@H]1C2(C)C` [(−)-α-pinene], the “substrate preference between enantiomers” value with recombinant FaPINH ((−)- versus (+)-α-pinene) is “preferred to (+)-α-pinene”.
Consider `CC(C)=CCCC(C)=CC=O` [citral], for which the “antimicrobial effect compared with geraniol” value in the test with plant pathogens is recorded as “more effective than geraniol”.
Take `C=C(C)[C@@H]1CC=C(CO)CC1` [perilla alcohol]: the “inhibition of spore germination” value in the test with Phytophthora infestans [1] and with Botrytis elliptica [2] was “effective inhibitors” in each case. In the test on Botrytis elliptica [2], the “effectiveness against spore germination relative to linalool and myrtenol” value was “about 2 fold”. For the same compound, the figures for the “effectiveness … compared with linalool” value with Botrytis elliptica [3], in the test with Phytophthora infestans [4] and in the test on Pythium aphanidermatum were “slightly more effective than linalool”, “more effective than linalool” and “more effective”, respectively. Also, the “inhibition of mycelial growth” value in the test on Botrytis elliptica [3], in the test with Phytophthora infestans [4] and in the test with Pythium aphanidermatum was “effectively inhibited” throughout.
With `C=C(C)[C@H]1CC=C(C)CC1` [limonene], the “hydroxylation” value with recombinant FaPINH is “efficiently hydroxylated”.
`C=C(C)C1CC=C(C=O)CC1` (stereo not shown) [perilla aldehyde]: the “inhibition of spore germination” value in the test with Phytophthora infestans [1] and in the test on Botrytis elliptica [2] was “effective inhibitors” throughout. The “effectiveness against spore germination relative to linalool” value with Phytophthora infestans [1] (FIG. 7A, more effective than linalool) is listed as “about 10 fold”. Besides, the “effect on spore germination at the concentration tested” value in the test with Botrytis elliptica [2] is “completely blocks germination”. For the same compound, the “effectiveness … compared with linalool” value in the test on Botrytis elliptica [3] is recorded as “slightly more effective than linalool”; with Phytophthora infestans [4], “more effective than linalool”; in the test on Pythium aphanidermatum, “more effective”. The “inhibition of mycelial growth” value with Botrytis elliptica [3], in the test with Phytophthora infestans [4] and in the test on Pythium aphanidermatum was “effectively inhibited” throughout. Also, the “effectiveness against mycelial growth relative to linalool” value in the test with Phytophthora infestans [4] (more effective than linalool) was 4-5 fold. In the test on plant pathogens, the “antimicrobial effect compared with perilla alcohol” value was “more effective than perilla alcohol”.
As for `CC(C)=CCC/C(C)=C/C(=O)O` [geranic acid], the “antimicrobial effect compared with geraniol” value with plant pathogens was “more effective than geraniol”.
With `C=C(C)[C@@H]1CC=C(C(=O)O)CC1` [perillic acid], the “antimicrobial effect compared with perilla alcohol” value in the test on plant pathogens is “more effective than perilla alcohol”.
Consider `CC1=CC[C@H](C(C)C)C=C1` [α-phellandrene], for which, in the test with recombinant FaPINH, the “hydroxylation” value is given as “hydroxylated at the same position”.
